Source: patent US20220347175A1, “PYRIDAZINONE DERIVATIVE” (Sumitomo Dainippon Pharma Co., Ltd., priority 2018, published 2022)

Assays:
human Nav1.5 = biological target: T1, human Nav1.5 (Homo sapiens, UniProt Q14524); experiment: Amplification of Nav1.5-derived voltage-dependent sodium current (Nav1.5 current), cell line stably expressing human Nav1.5, automated patch clamp; format: cell-based
T1 construct: expressed in transfected cells; host or cells: CHO-K1 (T-REx System, ThermoFisher Scientific)
T1 sequence (Q14524 1-2015 isoform Q14524-2): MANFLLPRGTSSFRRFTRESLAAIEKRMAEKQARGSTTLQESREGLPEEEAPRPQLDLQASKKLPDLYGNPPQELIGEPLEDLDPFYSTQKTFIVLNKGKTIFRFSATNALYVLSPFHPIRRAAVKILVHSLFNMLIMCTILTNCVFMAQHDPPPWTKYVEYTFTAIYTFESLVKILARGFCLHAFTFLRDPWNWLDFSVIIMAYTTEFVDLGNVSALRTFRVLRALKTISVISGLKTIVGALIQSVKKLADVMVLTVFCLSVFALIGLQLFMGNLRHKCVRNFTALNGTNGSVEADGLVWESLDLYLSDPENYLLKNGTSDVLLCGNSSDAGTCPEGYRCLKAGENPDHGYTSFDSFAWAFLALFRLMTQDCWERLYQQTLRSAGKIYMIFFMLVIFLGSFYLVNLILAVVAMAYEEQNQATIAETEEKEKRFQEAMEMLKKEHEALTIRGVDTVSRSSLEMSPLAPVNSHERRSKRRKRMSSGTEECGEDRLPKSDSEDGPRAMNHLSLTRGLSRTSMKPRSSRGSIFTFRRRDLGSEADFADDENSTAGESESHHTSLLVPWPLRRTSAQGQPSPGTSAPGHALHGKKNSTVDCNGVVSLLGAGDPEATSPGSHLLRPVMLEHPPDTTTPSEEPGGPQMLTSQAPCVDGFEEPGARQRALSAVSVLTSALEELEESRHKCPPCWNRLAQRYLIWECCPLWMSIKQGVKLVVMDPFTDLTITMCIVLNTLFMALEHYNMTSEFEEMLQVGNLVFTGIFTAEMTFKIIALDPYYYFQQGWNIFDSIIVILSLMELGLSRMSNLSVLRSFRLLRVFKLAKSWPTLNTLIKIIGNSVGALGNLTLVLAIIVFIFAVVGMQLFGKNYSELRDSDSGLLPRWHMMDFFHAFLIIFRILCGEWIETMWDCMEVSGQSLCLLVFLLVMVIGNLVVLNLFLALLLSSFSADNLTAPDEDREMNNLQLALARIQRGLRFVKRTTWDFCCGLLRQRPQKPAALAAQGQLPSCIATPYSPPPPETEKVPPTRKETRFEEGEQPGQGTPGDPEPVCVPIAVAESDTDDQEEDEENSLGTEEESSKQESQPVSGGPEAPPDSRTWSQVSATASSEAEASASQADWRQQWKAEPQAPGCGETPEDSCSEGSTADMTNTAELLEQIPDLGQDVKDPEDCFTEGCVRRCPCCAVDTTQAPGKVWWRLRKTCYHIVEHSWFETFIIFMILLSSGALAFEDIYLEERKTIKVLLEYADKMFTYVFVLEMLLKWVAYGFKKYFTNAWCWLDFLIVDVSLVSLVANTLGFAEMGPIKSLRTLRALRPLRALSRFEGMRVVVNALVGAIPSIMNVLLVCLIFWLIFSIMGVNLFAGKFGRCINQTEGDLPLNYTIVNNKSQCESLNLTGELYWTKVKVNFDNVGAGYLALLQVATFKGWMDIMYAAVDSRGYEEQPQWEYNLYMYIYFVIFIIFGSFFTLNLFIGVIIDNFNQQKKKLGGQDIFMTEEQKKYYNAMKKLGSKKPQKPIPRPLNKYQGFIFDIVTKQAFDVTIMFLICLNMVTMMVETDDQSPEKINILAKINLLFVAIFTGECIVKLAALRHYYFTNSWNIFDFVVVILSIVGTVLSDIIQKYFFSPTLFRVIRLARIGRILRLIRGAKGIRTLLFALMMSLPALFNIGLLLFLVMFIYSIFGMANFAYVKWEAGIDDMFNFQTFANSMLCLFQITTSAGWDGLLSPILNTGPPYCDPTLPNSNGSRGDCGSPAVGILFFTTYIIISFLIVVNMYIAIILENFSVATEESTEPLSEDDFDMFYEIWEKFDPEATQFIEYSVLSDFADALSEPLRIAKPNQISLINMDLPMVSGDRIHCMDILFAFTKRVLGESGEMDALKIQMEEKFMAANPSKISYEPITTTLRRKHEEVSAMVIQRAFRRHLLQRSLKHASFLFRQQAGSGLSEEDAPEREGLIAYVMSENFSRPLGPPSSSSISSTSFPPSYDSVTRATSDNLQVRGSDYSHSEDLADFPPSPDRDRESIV

human Nav1.1 = biological target: T2, human Nav1.1 (Homo sapiens, UniProt P35498); experiment: Amplification of Nav1.1-derived voltage-dependent sodium current (Nav1.1 current), cell line stably expressing human Nav1.1, automated patch clamp; format: cell-based
T2 construct: host or cells: HEK293
How it was run: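 Amplification rate (%) is 100 × post-compound/pre-compound Nav1.1 peak current or AUC, minus 100. Ramp-evoked sodium currents were recorded by automated patch clamp in a human Nav1.1 HEK293 stable line, restricted to cells exceeding 500 pA, with compounds added in extracellular solution containing 1% DMSO.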

[1] = 10 μmol/L compound, change of the area under the curve of Nav1.5 current (Test Result 1)
[2] = 10 μmol/L compound, change of the area under the curve of Nav1.1 current (Test Result 1)
[3] = 10 μmol/L compound, change of the area under the curve of Nav1.5 current (Test Result 1), read-out: Nav1.5 current amplification rate (%)
[4] = 10 μmol/L compound, change of the area under the curve of Nav1.1 current (Test Result 1), read-out: Nav1.1 current amplification rate (%)
[5] = compound 3 μmol/L, CHO-K1 stably expressing human Nav1.5
[6] = compound 3 μmol/L, HEK293 stably expressing human Nav1.1
[7] = compound 1 μmol/L, CHO-K1 stably expressing human Nav1.5
[8] = compound 1 μmol/L, HEK293 stably expressing human Nav1.1
[9] = compound 1 μmol/L, CHO-K1 stably expressing human Nav1.5, read-out: Nav1.5 current amplification rate (%)
[10] = compound 1 μmol/L, HEK293 stably expressing human Nav1.1, read-out: Nav1.1 current amplification rate (%)

Cc1ccc(N2CCN(C(=O)Cn3nc(C4=CCC(C)(C)CC4)ccc3=O)CC2)cn1 [Example 443]
Nav1.5 current amplification rate (%) (human Nav1.5; [1]): 1% | Nav1.1 current amplification rate (%) (human Nav1.1; [2]): 114%

COC1CN(c2cccc3c2CCN3C(=O)Cn2nc(C3=CCC(C)(C)CC3)ccc2=O)C1 [Example 434]
Nav1.5 current amplification rate (%) (human Nav1.5; [1]): 142% | Nav1.1 current amplification rate (%) (human Nav1.1; [2]): 232%

Cc1nc2cc(NC(=O)Cn3nc(C4=CCC(C)CC4)ccc3=O)ccc2o1 (stereo not drawn) [Example 422]
Nav1.5 current amplification rate (%) (human Nav1.5; [1]): 28% | Nav1.1 current amplification rate (%) (human Nav1.1; [2]): 287%

O=C(Cn1nc(N2CCC3(CCCC3)CC2)ccc1=O)Nc1ccc2ocnc2c1 [Example 135]
activation at 10 µM (human Nav1.5; [3]): 2% | activation at 10 µM (human Nav1.1; [4]): 195%

CC1CC=C(c2ccc(=O)n(CC(=O)N3CCc4cc(C5CN(C6COC6)C5)ccc43)n2)CC1 (racemic) [Example 318]
Nav1.5 current amplification rate (%) (human Nav1.5; [5]): 128% | Nav1.1 current amplification rate (%) (human Nav1.1; [6]): 77%

COC(=O)c1ccc(NC(=O)Cn2nc(N3CCC(C)CC3)ccc2=O)cn1 [Example 182]
activation at 10 µM (human Nav1.5; [3]): 17% | activation at 10 µM (human Nav1.1; [4]): 32%

CC1CCN(c2ccc(=O)n(CC(=O)Nc3cncc(C#N)c3)n2)CC1 [Example 60]
Nav1.5 current amplification rate (%) (human Nav1.5; [1]): 21% | Nav1.1 current amplification rate (%) (human Nav1.1; [2]): 57%

Cc1nc2cc(NC(=O)Cn3nc(N4CCC(C)CC4)ccc3=O)ccc2o1 [Example 69]
Nav1.5 current amplification rate (%) (human Nav1.5; [1]): 0% | Nav1.1 current amplification rate (%) (human Nav1.1; [2]): 137%

CC1CC=C(c2ccc(=O)n(CC(=O)N3CCc4c3ccnc4N3CCOCC3)n2)CC1 (racemic) [Example 319]
Nav1.5 current amplification rate (%) (human Nav1.5; [7]): 30% | Nav1.1 current amplification rate (%) (human Nav1.1; [8]): 134%

Cc1nc2cc(NC(=O)Cn3nc(N4CCC(C)CC4)ccc3=O)cc(Cl)c2o1 [Example 215]
activation at 10 µM (human Nav1.5; [3]): 18% | activation at 10 µM (human Nav1.1; [4]): 183%

Cc1cc(N2CCC3(CCC3)C2)nn(CC(=O)N2CCc3c(N4CCN(C)CC4)cccc32)c1=O [Example 225]
activation at 10 µM (human Nav1.5; [3]): 2% | activation at 10 µM (human Nav1.1; [4]): 146%

CC1CC=C(c2ccc(=O)n(CC(=O)N3CCc4c(-c5ccncc5)cccc43)n2)CC1 (racemic) [Example 250]
Nav1.5 current amplification rate (%) (human Nav1.5; [5]): 121% | Nav1.1 current amplification rate (%) (human Nav1.1; [6]): 564%

CC1(C)CC=C(c2ccc(=O)n(CC(=O)N3CCN(c4cccnc4)CC3)n2)CC1 [Example 440]
Nav1.5 current amplification rate (%) (human Nav1.5; [1]): 7% | Nav1.1 current amplification rate (%) (human Nav1.1; [2]): 196%

Cc1cc(=O)n(CC(=O)Nc2ccc3ocnc3c2)nc1N1CCC2(CCC2)C1 [Example 205]
activation at 10 µM (human Nav1.5; [3]): 20% | activation at 10 µM (human Nav1.1; [4]): 235%

CC1CC=C(c2ccc(=O)n(CC(=O)Nc3ccc4oc(N(C)C)nc4c3)n2)CC1 (stereo not drawn) [Example 244, N-[2-(dimethylamino)-1,3-benzooxazol-5-yl]-2-[3-(4-methylcyclohex-1-en)-6-oxopyridazin-1(6H)-yl]acetamide]
activation at 3 µM (human Nav1.5; compound 3 μmol/L, CHO-K1 stably expressing human Nav1.5, read-out: Nav1.5 current amplification rate (%)): 21% | activation at 3 µM (human Nav1.1; compound 3 μmol/L, HEK293 stably expressing human Nav1.1, read-out: Nav1.1 current amplification rate (%)): 263%

CC1CC=C(c2ccc(=O)n(CC(=O)Nc3cc4nccn4cn3)n2)CC1 (racemic) [Example 328]
Nav1.5 current amplification rate (%) (human Nav1.5; [5]): 21% | Nav1.1 current amplification rate (%) (human Nav1.1; [6]): 58%

COc1cc(=O)n(CC(=O)Nc2ccc3ocnc3c2)nc1N1CCC2(CCCC2)C1 [Example 195]
activation at 10 µM (human Nav1.5; [3]): 29% | activation at 10 µM (human Nav1.1; [4]): 209%

Cc1ccc(-c2ccc(=O)n(CC(=O)Nc3ccc4ocnc4c3)n2)cn1 [Example 452]
Nav1.5 current amplification rate (%) (human Nav1.5; [1]): 2% | Nav1.1 current amplification rate (%) (human Nav1.1; [2]): 10%

CN(C)c1cc(=O)n(CC(=O)Nc2ccc3ocnc3c2)nc1N1CCC2(CCCC2)C1 [Example 197]
activation at 10 µM (human Nav1.5; [3]): 56% | activation at 10 µM (human Nav1.1; [4]): 318%

Cc1cc(NC(=O)Cn2nc(C3=CCC(C)CC3)ccc2=O)cn2ncnc12 (racemic) [Example 349]
Nav1.5 current amplification rate (%) (human Nav1.5; [7]): 24% | Nav1.1 current amplification rate (%) (human Nav1.1; [8]): 101%

COc1nc2cc(NC(=O)Cn3nc(N4CCC(C)CC4)ccc3=O)ccc2o1 [Example 99]
Nav1.5 current amplification rate (%) (human Nav1.5; [1]): 4% | Nav1.1 current amplification rate (%) (human Nav1.1; [2]): 103%

O=C(Cn1nc(C2=CCCC2)ccc1=O)N1CCc2c(-c3cccnc3)cccc21 [Example 524]
activation at 1 µM (human Nav1.5; [9]): 5% | activation at 1 µM (human Nav1.1; [10]): 143%

CN(C)c1cc(N2CCC3(CCC3)C2)nn(CC(=O)N2CCc3c(N4CCOCC4)cccc32)c1=O [Example 222]
activation at 1 µM (human Nav1.5; [9]): 11% | activation at 1 µM (human Nav1.1; [10]): 137%

COc1ncc(-c2cccc3c2CCN3C(=O)Cn2nc(C3=CCC(C)CC3)ccc2=O)cn1 (racemic) [Example 249]
Nav1.5 current amplification rate (%) (human Nav1.5; [5]): 106% | Nav1.1 current amplification rate (%) (human Nav1.1; [6]): 584%
